Measured values: patent US12173007B2, “Imidazopyridazine IL-17 inhibitor compounds” (Janssen Pharmaceutica NV, priority 2021, dated 2024)

Test system: IL-17A-induced G-CSF production in human normal keratinocyte (NHK)
Assay: NHK assay: IL-17A-induced G-CSF production in normal human keratinocytes
Format: cell-based
Conditions: Homo sapiens, Keratinocyte, 24 h, IL-17A 5 ng/mL, G-CSF by HTRF, average if tested more than once
Method: IL-17A acts directly on keratinocytes through binding to dimeric receptor IL-17RA/RC and drives the production of a number of inflammatory mediators known to be elevated in psoriasis lesional tissue. IL-17A small molecule inhibitors that block the IL-17A to interact with IL-17R would inhibit the IL-17A signaling in its targeted cells such as keratinocytes. The compound functional activity is evaluated for its impact on IL-17A-induced G-CSF production in human normal keratinocyte (NHK).
Adult normal human keratinocytes are cultured in keratinocyte growth medium (Lonza) in a flask till reaching ˜90% confluence, then cells are transferred to a 384-well plate at density of 3000-4000 cell/well. Recombinant human IL-17A (Gibco PHC9174) is pre-incubated with titrated compound or DMSO for 1 h at rt then added to the cell culture plate. The final concentration of IL-17A is 5 ng/mL and DMSO is 0.2%, in the culture containing 5% FBS. Cells are cultured/treated for 24 h at 37° C. Supernatants are collected and G-CSF production is measured through HTRF technology using Human G-CSF Kit (CisBio). G-CSF concentration was extrapolated from the standard curve and IC50 is determined using GraphPad Prism. Cell viability is also evaluated using CellTiter-Glo kit (Promega) and effect of compound on cell viability is compared to DMSO control.

Compound | IC50
COC[C@H](c1cnn2cc([C@@H](CCC(C)(C)C(F)(F)F)NC(=O)c3nonc3C)nc2c1)N1CC(F)(F)CNC1=O [Example 67, N—((R)-1-(7-((S)-1-(5,5-Difluoro-2-oxotetrahydropyrimidin-1(2H)-yl)-2-methoxyethyl)imidazo[1,2-b]pyridazin-2-yl)-5,5,5-trifluoro-4,4-dimethylpentyl)-4-methyl-1,2,5-oxadiazole-3-carboxamide] | > 100 nM
CC(C)n1nccc1C(=O)N[C@H](c1cn2ncc([C@@H](COC3CC3)N3CC(F)(F)CNC3=O)cc2n1)C1CCC(F)(F)CC1 [Example 37, N—((S)-(7-((S)-2-Cyclopropoxy-1-(5,5-difluoro-2-oxotetrahydropyrimidin-1(2H)-yl)ethyl)imidazo[1,2-b]pyridazin-2-yl)(4,4-difluorocyclohexyl)methyl)-1-isopropyl-1H-pyrazole-5-carboxamide] | < 50 nM
COC[C@H](c1cnn2cc([C@H](CC(C)(C)C(F)(F)F)NC(=O)c3nonc3C)nc2c1)N1CC(F)(F)CNC1=O [Example 66, N—((S)-1-(7-((S)-1-(5,5-Difluoro-2-oxotetrahydropyrimidin-1(2H)-yl)-2-methoxyethyl)imidazo[1,2-b]pyridazin-2-yl)-4,4,4-trifluoro-3,3-dimethylbutyl)-4-methyl-1,2,5-oxadiazole-3-carboxamide] | 50 to 100 nM
COC[C@H](c1cnn2cc([C@@H](NC(=O)c3nonc3C3CC3)[C@@H](C)O[C@H](C)C(F)(F)F)nc2c1)N1CC(F)(F)CNC1=O [Example 42, 4-Cyclopropyl-N-((1R,2R)-1-(7-((S)-1-(5,5-difluoro-2-oxotetrahydropyrimidin-1(2H)-yl)-2-methoxyethyl)imidazo[1,2-b]pyridazin-2-yl)-2-(((R)-1,1,1-trifluoropropan-2-yl)oxy)propyl)-1,2,5-oxadiazole-3-carboxamide] | < 50 nM
Cc1nonc1C(=O)N[C@@H](CC(C)(C)C(F)(F)F)c1cn2ncc([C@@H](COC3CC3)N3CC(F)(F)CNC3=O)cc2n1 [Example 50, N—((S)-1-(7-((S)-2-Cyclopropoxy-1-(5,5-difluoro-2-oxotetrahydropyrimidin-1(2H)-yl)ethyl)imidazo[1,2-b]pyridazin-2-yl)-4,4,4-trifluoro-3,3-dimethylbutyl)-4-methyl-1,2,5-oxadiazole-3-carboxamide] | < 50 nM
CC(C)(C[C@H](NC(=O)c1nonc1C1CC1)c1cn2ncc([C@@H](COC3CC3)N3CC(F)(F)CNC3=O)cc2n1)C(F)(F)F [Example 44, N—((S)-1-(7-((S)-2-Cyclopropoxy-1-(5,5-difluoro-2-oxotetrahydropyrimidin-1(2H)-yl)ethyl)imidazo[1,2-b]pyridazin-2-yl)-4,4,4-trifluoro-3,3-dimethylbutyl)-4-cyclopropyl-1,2,5-oxadiazole-3-carboxamide] | < 50 nM
COC[C@H](c1cnn2cc([C@@H](NC(=O)c3nonc3C)[C@@H](C)OC(C)(C)C(F)(F)F)nc2c1)N1CC(F)(F)CNC1=O (relative stereo) [Example 60, N-((1R*,2R*)-1-(7-((S)-1-(5,5-Difluoro-2-oxotetrahydropyrimidin-1(2H)-yl)-2-methoxyethyl)imidazo[1,2-b]pyridazin-2-yl)-2-((1,1,1-trifluoro-2-methylpropan-2-yl)oxy)propyl)-4-methyl-1,2,5-oxadiazole-3-carboxamide] | < 50 nM
C[C@H](c1cnn2cc([C@@H](NC(=O)c3nonc3C3CC3)C3CCC(F)(F)CC3)nc2c1)N1CC(F)(F)CNC1=O [Example 63, 4-Cyclopropyl-N—((S)-(7-((R)-1-(5,5-difluoro-2-oxotetrahydropyrimidin-1(2H)-yl)ethyl)imidazo[1,2-b]pyridazin-2-yl)(4,4-difluorocyclohexyl)methyl)-1,2,5-oxadiazole-3-carboxamide] | < 50 nM
C[C@H](c1cnn2cc([C@H](CC(C)(C)C(F)(F)F)NC(=O)c3nonc3C3CC3)nc2c1)N1CC(F)(F)CNC1=O [Example 88, 4-Cyclopropyl-N—((S)-1-(7-((R)-1-(5,5-difluoro-2-oxotetrahydropyrimidin-1(2H)-yl)ethyl)imidazo[1,2-b]pyridazin-2-yl)-4,4,4-trifluoro-3,3-dimethylbutyl)-1,2,5-oxadiazole-3-carboxamide] | < 50 nM
Cc1nonc1C(=O)N[C@H](c1cn2ncc(C(COC(C)C)N3CC(F)(F)CNC3=O)cc2n1)C1CCC(F)(F)CC1 (single isomer, unassigned) [Example 58, N—((S)-(7-((S*)-1-(5,5-Difluoro-2-oxotetrahydropyrimidin-1(2H)-yl)-2-isopropoxyethyl)imidazo[1,2-b]pyridazin-2-yl)(4,4-difluorocyclohexyl)methyl)-4-methyl-1,2,5-oxadiazole-3-carboxamide] | < 50 nM
Cc1nonc1C(=O)N[C@@H](COC(C)(C)C(F)(F)F)c1cn2ncc([C@@H](C3CC3)N3CC(F)(F)CNC3=O)cc2n1 [Example 62, N—((R)-1-(7-((R)-Cyclopropyl(5,5-difluoro-2-oxotetrahydropyrimidin-1(2H)-yl)methyl)imidazo[1,2-b]pyridazin-2-yl)-2-((1,1,1-trifluoro-2-methylpropan-2-yl)oxy)ethyl)-4-methyl-1,2,5-oxadiazole-3-carboxamide] | 50 to 100 nM
COC[C@H](c1cnn2cc([C@H](COC(C)(C)C(F)(F)F)NC(=O)c3ccnn3C(C)C)nc2c1)N1CC(F)(F)CNC1=O [Example 65, N—((R)-1-(7-((S)-1-(5,5-Difluoro-2-oxotetrahydropyrimidin-1(2H)-yl)-2-methoxyethyl)imidazo[1,2-b]pyridazin-2-yl)-2-((1,1,1-trifluoro-2-methylpropan-2-yl)oxy)ethyl)-1-isopropyl-1H-pyrazole-5-carboxamide] | < 50 nM
COC[C@H](c1cnn2cc([C@@H](NC(=O)c3nonc3C)[C@@H](C)O[C@H](C)C(F)(F)F)nc2c1)N1CC(F)(F)CNC1=O [Example 53, N-((1R,2R)-1-(7-((S)-1-(5,5-Difluoro-2-oxotetrahydropyrimidin-1(2H)-yl)-2-methoxyethyl)imidazo[1,2-b]pyridazin-2-yl)-2-(((R)-1,1,1-trifluoropropan-2-yl)oxy)propyl)-4-methyl-1,2,5-oxadiazole-3-carboxamide] | < 50 nM
CCOCC(c1cnn2cc([C@@H](NC(=O)c3nonc3C3CC3)C3CCC(F)(F)CC3)nc2c1)N1CC(F)(F)CNC1=O (single isomer, unassigned) [Example 36, 4-Cyclopropyl-N—((S)-(7-((S*)-1-(5,5-difluoro-2-oxotetrahydropyrimidin-1(2H)-yl)-2-ethoxyethyl)imidazo[1,2-b]pyridazin-2-yl)(4,4-difluorocyclohexyl)methyl)-1,2,5-oxadiazole-3-carboxamide] | < 50 nM
Cc1nonc1C(=O)N[C@H](c1cn2ncc([C@@H](C3CC3)N3CCC4(CC4)NC3=O)cc2n1)C1CCC(F)(F)CC1 [Example 47, N—[(S)-[7-[(R)-Cyclopropyl-(7-oxo-6,8-diazaspiro[2.5]octan-6-yl)methyl]imidazo[1,2-b]pyridazin-2-yl]-(4,4-difluorocyclohexyl)methyl]-4-methyl-1,2,5-oxadiazole-3-carboxamide] | > 100 nM
COC[C@H](c1cnn2cc([C@H](NC(=O)c3nonc3C3CC3)[C@@H]3CCC(F)(F)C3)nc2c1)N1CC(F)(F)CNC1=O (relative stereo) [Example 52, 4-Cyclopropyl-N—((R*)-(7-((S)-1-(5,5-difluoro-2-oxotetrahydropyrimidin-1(2H)-yl)-2-methoxyethyl)imidazo[1,2-b]pyridazin-2-yl)((R*)-3,3-difluorocyclopentyl)methyl)-1,2,5-oxadiazole-3-carboxamide] | < 50 nM
COC[C@H](c1cnn2cc(C(CCC(C)(C)C(F)(F)F)NC(=O)c3nonc3C3CC3)nc2c1)N1CC(F)(F)CNC1=O (single isomer, unassigned) [Example 46, 4-Cyclopropyl-N—((S*)-1-(7-((S)-1-(5,5-difluoro-2-oxotetrahydropyrimidin-1(2H)-yl)-2-methoxyethyl)imidazo[1,2-b]pyridazin-2-yl)-5,5,5-trifluoro-4,4-dimethylpentyl)-1,2,5-oxadiazole-3-carboxamide] | < 50 nM
COC[C@H](c1cnn2cc([C@@H](NC(=O)c3nonc3C3CC3)[C@@H](C)O[C@@H](C)C(F)(F)F)nc2c1)N1CC(F)(F)CNC1=O [Example 43, 4-Cyclopropyl-N-((1R,2R)-1-(7-((S)-1-(5,5-difluoro-2-oxotetrahydropyrimidin-1(2H)-yl)-2-methoxyethyl)imidazo[1,2-b]pyridazin-2-yl)-2-(((S)-1,1,1-trifluoropropan-2-yl)oxy)propyl)-1,2,5-oxadiazole-3-carboxamide] | < 50 nM

Same assay, conditions: IL-17A 5 ng/mL, 24 h, G-CSF by HTRF; average if tested more than once

Compound | IC50
4-Cyclopropyl-N—((R)-1-(7-((S)-1-(5,5-difluoro-2-oxotetrahydropyrimidin-1(2H)-yl-4,4,6,6-d4)-2-methoxyethyl)imidazo[1,2-b]pyridazin-2-yl)-2-((1,1,1-trifluoro-2-methylpropan-2-yl)oxy)ethyl)-1,2,5-oxadiazole-3-carboxamide [Example 39] | < 50 nM
